Source: publication PMC4894417, “Quantitative High-Throughput Profiling of Environmental Chemicals and Drugs that Modulate Farnesoid X Receptor” (Scientific Reports, 2014)
Several values for one entry are separate records, joined by “and”; a condition that tells them apart may be missing. Identical values can stand only once. Entries after “also recorded” stand apart in the source; their conditions may differ. Like-named read-outs stand apart in the source and are kept apart here. Values belong to the compound of their own block, whether it stands above or below them.

Tests used:
[1] = tested on: FXR-UAS-bla HEK293T cells; experiment: Cell viability assay (CellTiter Glo) in the same well as FXR-bla; settings: for Cell viability IC50: Table 1, mean ± SD of 3 experiments
[2] = target: T1, human FXR (Homo sapiens, UniProt Q96RI1); experiment: FXR-bla reporter gene assay, antagonist mode (CDCA-induced transactivation); settings: for FXR-bla, antagonist Efficacy: inhibition as percent of positive control (guggulsterone)
[3] = target: T2, FXR-LBD (Homo sapiens, UniProt Q96RI1); experiment: FXR TR-FRET coactivator recruitment assay, antagonist mode (50 μM CDCA); type: biochemical
T2 construct: The glutathione S-transferase (GST)-tagged FXR-LBD protein; purchased Life Technologies
T2 sequence (Q96RI1 262-486 limits assumed): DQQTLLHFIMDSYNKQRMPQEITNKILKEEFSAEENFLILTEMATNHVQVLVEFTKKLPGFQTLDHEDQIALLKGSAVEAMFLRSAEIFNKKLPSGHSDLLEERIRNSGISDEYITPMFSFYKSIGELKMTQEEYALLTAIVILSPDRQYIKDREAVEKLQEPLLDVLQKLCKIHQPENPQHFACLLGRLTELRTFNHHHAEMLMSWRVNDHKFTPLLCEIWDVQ

[4] = target: T1, human FXR; experiment: FXR-bla reporter gene assay, agonist mode (qHTS); settings: for FXR-bla, agonist Efficacy: Table 1, activation as percent of positive control (CDCA 100%), mean ± SD of 3; for FXR agonist activity: FXR-bla assay; for FXR-bla, agonist EC50: Table 1, confirmed compounds, mean ± SD of 3 experiments
[5] = target: T2, FXR-LBD; experiment: FXR TR-FRET coactivator recruitment assay, agonist mode; type: biochemical; settings: Table 1; coactivator SRC2-2 recruitment
[6] = tested on: FXR-UAS-bla HEK293T cells
[7] = Cell viability assay (CellTiter Glo) in the same well as FXR-bla; settings: human, FXR-UAS-bla HEK293T cells
[8] = target: vitamin D receptor (VDR) (Homo sapiens, UniProt P11473); experiment: VDR-bla reporter gene assay (agonist and antagonist modes)
[9] = Table 1, in the presence of 50 μM CDCA
[10] = FXR antagonist mode IC50, Table S1, primary screening, 50 µM CDCA

T1 sequence (Q96RI1 with tags, fused parts or gaps limits assumed): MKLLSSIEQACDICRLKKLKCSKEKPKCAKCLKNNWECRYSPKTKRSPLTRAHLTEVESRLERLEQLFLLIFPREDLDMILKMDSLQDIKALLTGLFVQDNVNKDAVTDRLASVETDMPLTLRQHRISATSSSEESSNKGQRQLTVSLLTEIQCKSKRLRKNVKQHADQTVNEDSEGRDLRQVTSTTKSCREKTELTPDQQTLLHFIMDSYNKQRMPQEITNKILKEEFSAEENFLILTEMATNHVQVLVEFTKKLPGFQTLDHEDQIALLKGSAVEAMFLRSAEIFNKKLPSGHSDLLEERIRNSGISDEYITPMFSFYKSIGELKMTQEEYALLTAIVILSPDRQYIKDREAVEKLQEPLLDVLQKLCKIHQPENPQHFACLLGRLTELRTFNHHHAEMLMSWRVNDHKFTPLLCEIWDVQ
Chain of vitamin D receptor (VDR) (P11473 with tags, fused parts or gaps limits assumed): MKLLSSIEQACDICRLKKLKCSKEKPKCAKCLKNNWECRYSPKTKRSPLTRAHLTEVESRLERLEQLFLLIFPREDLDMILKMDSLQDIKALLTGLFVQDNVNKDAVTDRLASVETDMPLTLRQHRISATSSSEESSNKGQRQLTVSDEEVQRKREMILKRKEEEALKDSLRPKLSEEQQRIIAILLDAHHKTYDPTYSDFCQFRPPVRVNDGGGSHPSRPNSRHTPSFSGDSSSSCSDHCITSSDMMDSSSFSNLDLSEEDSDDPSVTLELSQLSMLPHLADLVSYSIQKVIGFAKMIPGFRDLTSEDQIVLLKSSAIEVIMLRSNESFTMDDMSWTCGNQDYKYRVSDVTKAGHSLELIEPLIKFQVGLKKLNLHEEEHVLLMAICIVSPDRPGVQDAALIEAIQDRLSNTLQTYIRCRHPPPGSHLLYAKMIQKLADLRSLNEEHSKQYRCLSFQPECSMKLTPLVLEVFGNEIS

FXR-bla, antagonist IC50 ([2]; Table 1, 50 μM CDCA, mean ± SD of 3 experiments): Inactive | FXR TR-FRET, antagonist IC50 [3, 9]: Inactive | EC50 [4]: 11.2 ± 2.09 µM | FXR-bla, agonist Efficacy [4]: 152% and 152 ± 22%
SMILES: Nc1c2ccccc2nc2ccccc12 [9-Aminoacridine]
Cell viability IC50 [1]: Inactive | FXR TR-FRET, agonist EC50 [5]: unable to induce coactivator recruitment; also recorded: Inactive

SMILES: CC1=C(/C=C/C(C)=C/C=C/C(C)=C\C(=O)O)C(C)(C)CCC1 [13-cis Retinoic acid]
Cytotoxicity Efficacy [6]: 52 ± 44

SMILES: C/C=C1/C(=O)C[C@H]2[C@@H]3CCC4=CC(=O)CC[C@]4(C)[C@H]3CC[C@]12C [(E)-Guggulsterone]
Cytotoxicity IC50 [6]: Inactive

SMILES: C/C=C1\C(=O)C[C@H]2[C@@H]3CCC4=CC(=O)CC[C@]4(C)[C@H]3CC[C@]12C [(Z)-Guggulsterone]
Cytotoxicity IC50 [6]: Inactive

SMILES: CC1(C)CCC(C)(C)c2cc(NC(=O)c3ccc(C(=O)O)cc3)ccc21 [AM80]
FXR antagonist mode IC50 [2]: Inactive | Cytotoxicity IC50 [6]: Inactive | FXR agonist mode Efficacy [4]: 18 ± 7 | FXR agonist activity [4]: selectively induced transactivation of FXR | EC50 ([4]; read-out: FXR agonist mode EC50, Table S1, primary screening): 38.9 ± 2.36 µM

IC50 [2, 10]: 0.44 ± 0.21 µM | FXR antagonist activity ([2]; FXR-bla assay, CDCA-induced): inconclusive antagonists | FXR agonist mode EC50 ([4]; Table S1, primary screening): Inactive
SMILES: CC(C)C[C@H](NC(=O)[C@H](Cc1ccccc1)NC(=O)c1cnccn1)B(O)O [Bortezomib]
IC50 at 16 h [7]: 0.22 ± 0.1 µM | Cytotoxicity Efficacy ([1]; Table S1, primary screening): 57 ± 2%

SMILES: CC1=C2C[C@H]3[C@@H](CC=C4C[C@@H](O)CC[C@@]43C)[C@@H]2CC[C@]12O[C@@H]1C[C@H](C)CN[C@H]1[C@H]2C [Cyclopamine]
IC50 ([1]; Homo sapiens, HEK-293T, read-out: Cell viability IC50): 17.6 µM | FXR-bla, antagonist IC50 [2]: Inactive | FXR TR-FRET, antagonist IC50 [3, 9]: Inactive | EC50 [4]: 10.6 ± 3.13 µM | FXR-bla, agonist Efficacy [4]: 94% and 94 ± 9% | FXR TR-FRET, agonist EC50 [5]: unable to induce coactivator recruitment; also recorded: Inactive

SMILES: CC1(C)C(/C=C(\Cl)C(F)(F)F)C1C(=O)OC(C#N)c1cccc(Oc2ccccc2)c1 (stereo not drawn) [Cyhalothrin]
Cytotoxicity IC50 ([1]; Table S1, primary screening): Inactive | FXR antagonist mode Efficacy [2]: 50 ± 15 | IC50 ([2]; FXR antagonist mode IC50): 21.3 ± 13.1 µM | VDR activity [8]: antagonist activity | FXR agonist mode EC50 ([4]; Table S1, primary screening): Inactive

FXR antagonist mode IC50 ([2]; Table S1, primary screening, 50 µM CDCA): Inactive | EC50 [4]: 47.3 µM | FXR agonist mode Efficacy ([4]; Table S1, primary screening, CDCA 100%): 50 ± 12%
SMILES: C[C@H](CCC(=O)O)[C@H]1CC[C@H]2[C@@H]3CC[C@@H]4C[C@H](O)CC[C@]4(C)[C@H]3C[C@H](O)[C@]12C [DCA, Deoxycholic acid]
IC50 at 16 h [7]: 66.5 ± 16.1 µM | Cytotoxicity Efficacy ([1]; Table S1, primary screening): 73 ± 17% | FXR agonist activity [4]: selectively induced transactivation of FXR

SMILES: C[C@H]1O[C@@H](O[C@H]2[C@@H](O)C[C@H](O[C@H]3[C@@H](O)C[C@H](O[C@H]4CC[C@@]5(C)[C@H](CC[C@@H]6[C@@H]5C[C@@H](O)[C@]5(C)[C@@H](C7=CC(=O)OC7)CC[C@]65O)C4)O[C@@H]3C)O[C@@H]2C)C[C@H](O)[C@@H]1O [Digoxin]
IC50 at 16 h [7]: 0.02 ± 0.01 µM | Cytotoxicity Efficacy ([1]; Table S1, primary screening): 35 ± 7% | FXR antagonist activity [2]: inconclusive antagonists | FXR antagonist mode Efficacy [2]: 92 ± 10% | IC50 [2, 10]: 0.08 ± 0.02 µM | FXR agonist mode EC50 [4]: Inactive

SMILES: O=C1c2ccccc2C(=O)C1C(=O)C(c1ccccc1)c1ccccc1 [Diphacinone]
Cell viability IC50 [1]: Inactive | IC50 ([2]; FXR-bla, antagonist IC50): 15 µM | FXR TR-FRET, antagonist IC50 [3]: Inactive | FXR-bla, agonist EC50 [4]: Inactive | FXR TR-FRET, agonist EC50 [5]: Inactive

IC50 [2]: 3.5 ± 0.4 µM | FXR-bla, antagonist Efficacy ([2]; Table 1, 50 μM CDCA): 81 ± 5% | FXR antagonist Efficacy ([2]; Table S3, 50 µM CDCA): 53 ± 11% | FXR TR-FRET, antagonist IC50 [3, 9]: Inactive | FXR-bla, agonist EC50 [4]: Inactive | FXR TR-FRET, agonist EC50 [5]: Inactive
SMILES: OCCN(CCO)c1nc(N2CCCCC2)c2nc(N(CCO)CCO)nc(N3CCCCC3)c2n1 [Dipyridamole]
Cell viability IC50 [1]: Inactive

IC50 [2]: 10.2 ± 0.69 µM | FXR-bla, antagonist Efficacy ([2]; Table 1, 50 μM CDCA): 110 ± 9% | FXR TR-FRET, antagonist IC50 [3, 9]: Inactive | FXR-bla, agonist EC50 [4]: Inactive | FXR TR-FRET, agonist EC50 [5]: Inactive
SMILES: Cn1cc(C2=C(c3cn(C4CCN(Cc5ccccn5)CC4)c4ccccc34)C(=O)NC2=O)c2ccccc21 [Enzastaurin]
Cell viability IC50 [1]: Inactive
